Test results as given in patent publication US20250339569A1, “CARBONIC ANHYDRASE IX LIGANDS” (priority 2021, published 2025).
Read-outs that look alike come from different tables or passages of the source. Starred links: 1 amine or outer side, 2 acyl side, 3 side chain; linkers in the order of their positions; H or OH if unused. Positions of bridges follow the written chain, without caps; N, C: chain ends. Non-standard residues stand in square brackets, D forms with d. Residues, ends and D or L forms follow the SMILES beside them. *: point of attachment. X4 = CS(=O)(=O)CC(=O)Nc1cccc(C[C@H](N[*:1])C(=O)[*:2])c1; DOTA = O=C(O)CN1CCN(CC(=O)O)CCN(CC(=O)*)CCN(CC(=O)O)CC1; mXylylene = c1cc(C[*:1])cc(C[*:2])c1; X2 = O=C(CN1CCC(N[*:1])CC1)[*:2]; Dap = NC[C@H](N)C(=O)O

Key:
[1] = Biodistribution study (SPECT/CT) in SK-RC-52 tumor-bearing mice with or without gelofusine; format: in vivo, NMRI nude mice; conditions: female, NMRI nude, mouse, in vivo, iv, total radioactivity
Protocol: (§1) The effect on tumor uptake of prior injection of gelofusine for kidney protection was investigated in mice bearing the SK-RC-52 tumor. Biodistribution was evaluated using in vivo SPECT/CT imaging. Prior to the in vivo study the compounds (ligands) were initially radiolabeled with In-111 and the stability of radiolabeled compounds was evaluated in buffer at three different timepoints.
(§2) The study was performed in female NMRI nude mice (approximately 6 weeks of age) from Janvier Labs, France, housed up to 5 mice per cage.
(§3) The column was washed with 2 mL water, and then the final product was eluted from the column in EtOH solution (50%) • The sample was formulated in PBS to the final concentration of 150 MBq/mL and 5 nmol/mL.
(§4) SK-RC-52 cells were cultured in RPMI 1640 with GlutaMax-I (Thermo Fisher Scientific #61870044) supplemented with 10% fetal bovine serum+1% penicillin/streptomycin, harvested, washed twice in RPMI 1640 and resuspended at 2×10^7 cells/mL in RPMI 1640. HT-29 cells were cultured in McCoy's 5a Medium Modified (Sigma #M9309). For inoculation of HT-29 cells, cells were harvested, washed twice in PBS and resuspended at 5×10^7 cells/mL in PBS. Cells were kept on ice until inoculation.
(§5) Animals were anaesthetized (isoflurane, 2-4% in ambient air supplemented with 100% 02) prior to tumor inoculation. The tumor cells (100 μL suspension of either SK-RC-52 cells (2×10^6 cells/animal) or HT-29 cells (5×10^6 cells/animal)) were subcutaneously inoculated in the right flank using a 1-mL syringe equipped with a 27 G needle. Tumor growth and animal weight were measured twice per week. Tumor size was measured by caliper and the volume was estimated using the following formula: 0.52×(length×width^2). When tumor sizes reached 150-250 mm^3, animals were randomized into groups (n=3) of similar average tumor volume and body weight.
(§6) Animals were injected intravenously with In-111-labeled compounds (single bolus, 22.3-31.2 MBq, ˜1 nmol ligand, injection volume: 100 μL) in the lateral tail vein using a 29 G syringe.
(§7) CT was performed with helical scan, 300 ms exposure, reconstruction resolution of 250 μm. SPECT was performed with multi-pinhole scan and a 30 s frame time. For the quantification of the radioactivity uptake, regions of interests (ROIs) were drawn over the tumor, kidney, liver, and heart (estimate of blood) identified on the images. Uptake was expressed as percent of injected dose per gram tissue (% ID/g).

SK-RC-52 tumor = test: as above; format: in vivo, NMRI nude mice; conditions: mouse, in vivo
Protocol: as §1, §2, §3, §4, §5, §6, §7

[2] = Biodistribution study (SPECT/CT) in HT-29 tumor-bearing mice; format: in vivo, NMRI nude mice; conditions: female, NMRI nude, mouse, in vivo, iv, total radioactivity
Protocol: as §1, §2, §3, §4, §5, §6, §7

HT-29 tumor = test: as above; format: in vivo, NMRI nude mice; conditions: mouse, in vivo
Protocol: as §1, §2, §3, §4, §5, §6, §7

[3] = Plasma stability assay, mouse plasma; conditions: mouse plasma, 37°C, 24 h
[4] = target: T1, CAIX-expressing human HT-29 colorectal cancer cells (Homo sapiens, UniProt Q16790); test: FACS binding assay (IC50 determination, competition with tracer 3BP-2776 or 3BP-4149); conditions: FACS binding assay, HT-29 cells, competition with tracer 3BP-2776 (10 nM, biotin-labeled), 4° C., 1 hour; read-out: pIC50 category (activity) (converted)
T1 construct: CAIX-expressing human HT-29 colorectal cancer cells; host or cells: HT-29 human colorectal cancer cells
Outline: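 HT-29 cells in FACS buffer (PBS, 1% FCS) at 500.000 cells/ml were exposed to compounds competing with a labelled tracer, with biotinylated compounds detected by 1 μg/mL APC-streptavidin for 30 min on ice. APC/Cy5 median fluorescence was read by flow cytometry and IC50 derived by 4PL fit.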

CAIV (hCAIV-bio) = target: T2, CAIV (hCAIV-bio) (Homo sapiens, UniProt P22748); test: SPR selectivity assay with biotinylated CAIV; format: binding; conditions: SPR, biotinylated CAIV; read-out: pKD category (affinity) CAIV (converted)
T2 construct: purchased SinoBliological (Sino Biological) 10472-1H081H
Protocol: (§8) In order to test selectivity of CAIX-binding peptides toward CAIV (SinoBliological, Cat #10472-1H081H), CAXII (SinoBliological, Cat #10617-H08H or CAXIV (SinoBliological, Cat #10458-H08H), SPR assays were performed analog to the assay described above but with a different target capture procedure. For immobilization, the carbonic anhydrases were biotinylated and capture on the SPR chip using the Biotin CAPture Kit (cytiva) according to the manufacturer instructions using HBSTE, 0.1% as Running Buffer.
(§9) Table 13 describes the protocol steps for biotinylated target capturing and assessment of the binding kinetics.

CAXIV (hCAXIV-bio) = target: T3, CAXIV (hCAXIV-bio) (Homo sapiens, UniProt Q9ULX7); test: SPR selectivity assay with biotinylated CAXIV; format: binding; conditions: SPR, biotinylated CAXIV; read-out: pKD category (affinity) CAXIV (converted)
T3 construct: purchased SinoBliological (Sino Biological) 10458-H08H
Protocol: as §8, §9

CAXII (hCAXII-bio) = target: T4, CAXII (hCAXII-bio) (Homo sapiens, UniProt O43570); test: SPR selectivity assay with biotinylated CAXII; format: binding; conditions: SPR, biotinylated CAXII; read-out: pKD category (affinity) CAXII (converted)
T4 construct: purchased SinoBliological (Sino Biological) 10617-H08H
Protocol: as §8, §9

[5] = target: T5, human carbonic anhydrase IX (hCAIX-Fc) (Homo sapiens, UniProt Q16790); test: Surface plasmon resonance assay with hCAIX-Fc; format: binding; conditions: 25° C.; for t1/2 category (activity): SPR dissociation half-life, hCAIX-Fc; for Kd: SPR, hCAIX-Fc captured, read-out: pKD category (activity) (converted)
T5 construct: purchased SinoBliological (Sino Biological) 10107-H02H

[6] = mouse, plasma, 24 h
[7] = Tumor/Blood uptake ratio at 4 h p.i.
[8] = Tumor/Liver uptake ratio at 4 h p.i.

T3 sequence (Q9ULX7 16-337): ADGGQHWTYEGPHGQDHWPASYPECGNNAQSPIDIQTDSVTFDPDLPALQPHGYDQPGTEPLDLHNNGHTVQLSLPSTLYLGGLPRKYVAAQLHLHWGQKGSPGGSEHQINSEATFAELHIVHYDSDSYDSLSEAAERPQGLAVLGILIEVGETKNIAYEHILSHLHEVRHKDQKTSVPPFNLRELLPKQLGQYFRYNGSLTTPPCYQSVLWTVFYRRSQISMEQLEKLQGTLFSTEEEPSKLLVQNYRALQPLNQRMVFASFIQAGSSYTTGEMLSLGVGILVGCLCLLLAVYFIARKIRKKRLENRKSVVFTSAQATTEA
T2 sequence (P22748 19-284): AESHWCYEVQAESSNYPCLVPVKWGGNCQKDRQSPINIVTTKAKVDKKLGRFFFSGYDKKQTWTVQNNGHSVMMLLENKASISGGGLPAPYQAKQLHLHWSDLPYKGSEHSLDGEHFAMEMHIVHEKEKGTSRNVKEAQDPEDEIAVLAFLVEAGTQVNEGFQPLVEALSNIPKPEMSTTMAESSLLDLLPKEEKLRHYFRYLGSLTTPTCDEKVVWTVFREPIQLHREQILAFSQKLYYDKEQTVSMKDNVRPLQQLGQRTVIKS
T4 sequence (O43570 25-354): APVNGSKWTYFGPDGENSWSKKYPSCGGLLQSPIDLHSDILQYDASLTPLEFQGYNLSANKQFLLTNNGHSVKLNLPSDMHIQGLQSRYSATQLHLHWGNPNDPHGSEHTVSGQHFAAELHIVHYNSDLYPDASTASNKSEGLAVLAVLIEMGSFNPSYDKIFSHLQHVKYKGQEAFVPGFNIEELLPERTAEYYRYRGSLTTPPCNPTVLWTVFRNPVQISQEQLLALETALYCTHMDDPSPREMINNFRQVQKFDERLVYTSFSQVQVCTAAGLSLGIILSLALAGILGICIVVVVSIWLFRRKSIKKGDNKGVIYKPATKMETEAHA

## CC(C)C[C@@H]1NC(=O)[C@H](Cc2ccc(NC(=O)CCS(N)(=O)=O)cc2)NC(=O)[C@H](CC(=O)O)NC(=O)[C@H]2CCCN2C(=O)[C@H](CCC(=O)O)NC(=O)[C@@H](NC(=O)[C@H](CCC(N)=O)NC(=O)CN2CCN(CC(=O)O)CCN(CC(=O)O)CCN(CC(=O)O)CC2)CSCc2cccc(c2)CSC[C@@H](C(N)=O)NC(=O)[C@H](CO)NC(=O)[C@H](Cc2c[nH]c3ccccc23)NC(=O)[C@H]([C@@H](C)O)NC1=O [DPI-4501, DOTA-Gln-[Cys(3MeBn)-Glu-pro-Asp-Aph(SaPr)-Leu-Thr-Trp-Ser-Cys]-NH2]
[1]; Blood uptake at 4 h p.i.
  tissue uptake at 4 h: 0.05 ± 0.01 %ID/g
[1]; Liver uptake at 4 h p.i.
  tissue uptake at 4 h: 0.08 ± 0.01 %ID/g
[1]; Peak Tumor Uptake
  tissue uptake: 7.17 ± 1.92 %ID/g
[1]; [7]
  tissue to tissue ratio at 4 h: 128 ± 20.3
[1]; [8]
  tissue to tissue ratio at 4 h: 70.2 ± 17
SK-RC-52 tumor; female, NMRI nude, iv
  Peak Tumor Uptake: 6.01 ± 0.39 % ID/g
SK-RC-52 tumor; female, NMRI nude, iv, 4 h
  Blood uptake at 4 h p.i.: 0.03 ± 0.003 % ID/g
  Liver uptake at 4 h p.i.: 0.07 ± 0.01 % ID/g
  Tumor/Blood uptake ratio at 4 h p.i.: 178.6 ± 39.3
  Tumor/Liver uptake ratio at 4 h p.i.: 81.4 ± 14.0
SK-RC-52 tumor
  Time to peak uptake in tumor: 1 h
[2]; Blood uptake at 4 h p.i.
  tissue uptake at 4 h: 0.04 ± 0.005 %ID/g
[2]; Kidney uptake at 24 h p.i.
  tissue uptake at 24 h: 2.16 ± 0.36 %ID/g
[2]; Liver uptake at 4 h p.i.
  tissue uptake at 4 h: 0.12 ± 0.01 %ID/g
[2]; Peak Kidney uptake
  tissue uptake: 5.61 ± 0.57 %ID/g
[2]; Peak Tumor Uptake
  tissue uptake: 3.81 ± 0.26 %ID/g
[2]; [7]
  tissue to tissue ratio at 4 h: 104 ± 10.2
[2]; [8]
  tissue to tissue ratio at 4 h: 29.8 ± 2.5
[2]; Tumor/kidney uptake ratio at 24 h p.i.
  tissue to tissue ratio at 24 h: 1.5 ± 0.1
HT-29 tumor
  Time to peak uptake in tumor: 2 h
HT-29 tumor; 24 h
  % remaining tumor uptake at 24 h p.i.: 80 ± 4.4%

## CC(C)C[C@@H]1NC(=O)[C@H](Cc2c[nH]c3ccccc23)NC(=O)[C@H](CC(=O)O)NC(=O)[C@H]2CCCN2C(=O)[C@H](CCC(=O)O)NC(=O)[C@@H]2CSCc3cccc(c3)CSC[C@@H](C(N)=O)NC(=O)[C@H](CNC(=O)C[C@H](NC(=O)[C@@H](NC(=O)CN3CCC(NC(=O)CN4CCN(CC(=O)O)CCN(CC(=O)O)CCN(CC(=O)O)CC4)CC3)C(C)C)C(=O)N2)NC(=O)[C@H](Cc2c[nH]c3ccccc23)NC(=O)[C@H]([C@@H](C)O)NC1=O [3BP-4174, DOTA-APAc-Val-{Asp-[Cys(3MeBn)-Glu-pro-Asp-Trp-Leu-Thr-Trp-Dap}-Cys]-NH2] ({DOTA}-[X2]VDCE[dP]DWLTW[Dap]C-NH2; lactam 3-12; linker 4-13 via mXylylene)
[3]
  % intact compound remaining (incubation time): >95%
[4]
  IC50: < 10 nM
CAIV (hCAIV-bio)
  Kd: > 1000 nM
CAXIV (hCAXIV-bio)
  Kd: > 1000 nM
CAXII (hCAXII-bio)
  Kd: > 1000 nM
[5]
  t1/2 category (activity): A (t1/2>15.0 minutes)
  Kd: < 10 nM

## CC(C)C[C@@H]1NC(=O)[C@H](Cc2cccc(NC(=O)CS(C)(=O)=O)c2)NC(=O)[C@H](CC(=O)O)NC(=O)[C@H]2CCCN2C(=O)[C@H](CCC(=O)O)NC(=O)[C@@H](NC(=O)[C@H](Cc2ccc(O)cc2)NC(=O)[C@@H](NC(=O)CN2CCC(NC(=O)CN3CCN(CC(=O)O)CCN(CC(=O)O)CCN(CC(=O)O)CC3)CC2)C(C)C)CSCc2cccc(c2)CSC[C@@H](C(N)=O)NC(=O)[C@H](CO)NC(=O)[C@H](Cc2c[nH]c3ccccc23)NC(=O)[C@H]([C@@H](C)O)NC1=O [3BP-4242] ({DOTA}-[X2]VYCE[dP]D[X4]LTWSC-NH2; linker 4-13 via mXylylene)
[4]
  IC50: < 10 nM
[6]
  % intact compound remaining (incubation time): >95%
[5]
  t1/2 category (activity): B (t1/2 between 5.1 and 15.0 minutes)
  Kd: < 10 nM
